Data: US9290536B2, “C4 monomethyl triterpenoid derivatives and methods of use thereof” (Reata Pharmaceuticals, Inc., priority 2011, dated 2016)

The molecules below were run on IFNγ-induced NO production in RAW264.7 (assay: Suppression of IFNγ-induced NO production in RAW264.7 mouse macrophages (Griess reagent, normalized to WST-1 cell viability)). Details: RAW264.7 cells, 2 h pre-treatment with drug (0-200 nM), then IFNγ for 24 h.
Type: cell-based
Description: Nitric Oxide Production and Cell Viability. […] On the next day, cells were pre-treated with DMSO or drug (0-200 nM dose range) for 2 hours, and then treated with recombinant mouse IFNγ (R&D Systems) for 24 hours. Nitric Oxide concentration in media was determined using the Griess reagent system (Promega). Cell viability was determined using WST-1 reagent (Roche). IC50 values were determined based on the suppression of IFNγ induced Nitric Oxide production normalized to cell viability.
With `Cc1cn(C(=O)[C@]23CCC(C)(C)C[C@H]2[C@H]2C(=O)C=C4[C@@]5(C)C=C(C#N)C(=O)[C@@H](C)[C@@H]5CC[C@@]4(C)[C@]2(C)CC3)c(C)n1` [TX63822] the IC50 was 0.7 nM.
`CCNC(=O)CC[C@]12CCC(C)(C)C[C@H]1[C@H]1C(=O)C=C3[C@@]4(C)C=C(C#N)C(=O)[C@@H](C)[C@@H]4CC[C@@]3(C)[C@]1(C)CC2` [TX63892] was tested, and the IC50 was 0.3 nM.
Molecule `C=C1C(=O)C(C#N)=C[C@]2(C)C3=CC(=O)[C@@H]4[C@@H]5CC(C)(C)CC[C@]5(C(=O)OC)CC[C@@]4(C)[C@]3(C)CC[C@@H]12` [TX63911] has an IC50 of 10 nM.
With `CC(=O)OCCC[C@]12CCC(C)(C)C[C@H]1[C@H]1C(=O)C=C3[C@@]4(C)C=C(C#N)C(=O)[C@@H](C)[C@@H]4CC[C@@]3(C)[C@]1(C)CC2` [TX63920] the IC50 was 0.9 nM.
Molecule `C[C@@H]1C(=O)C(C#N)=C[C@]2(C)C3=CC(=O)[C@@H]4[C@@H]5CC(C)(C)CC[C@]5(NC(=O)C5CCC5)CC[C@@]4(C)[C@]3(C)CC[C@@H]12` [TX63863] has an IC50 of 1.8 nM.
Work on `C[C@@H]1C(=O)C(C#N)=C[C@]2(C)C3=CC(=O)[C@@H]4[C@@H]5CC(C)(C)CC[C@]5(N)CC[C@@]4(C)[C@]3(C)CC[C@@H]12` [TX63620] yielded an IC50 of 1.2 nM.
Work on `C[C@@H]1C(=O)C(C#N)=C[C@]2(C)C3=CC(=O)[C@@H]4[C@@H]5CC(C)(C)CC[C@]5(C(=O)N5CCCCC5)CC[C@@]4(C)[C@]3(C)CC[C@@H]12` [TX63880] yielded an IC50 of 1.6 nM.
`CCNC(=O)OCCC[C@]12CCC(C)(C)C[C@H]1[C@H]1C(=O)C=C3[C@@]4(C)C=C(C#N)C(=O)[C@@H](C)[C@@H]4CC[C@@]3(C)[C@]1(C)CC2` [TX63982] gave an IC50 of 3.5 nM.
Molecule `COC(=O)CC[C@]12CCC(C)(C)C[C@H]1[C@H]1C(=O)C=C3[C@@]4(C)C=C(C#N)C(=O)[C@@H](C)[C@@H]4CC[C@@]3(C)[C@]1(C)CC2` [TX63867] has an IC50 of 1.3 nM.
`COC(=O)[C@]12CCC(C)(C)C[C@H]1[C@H]1C(=O)C=C3[C@@]4(C)C=CC(=O)[C@@H](C)[C@@H]4CC[C@@]3(C)[C@]1(C)CC2` [TX63832] gave an IC50 of 149 nM.
In the case of `C[C@@H]1C(=O)C(C#N)=C[C@]2(C)C3=CC(=O)[C@@H]4[C@@H]5CC(C)(C)CC[C@]5(C(N)=O)CC[C@@]4(C)[C@]3(C)CC[C@@H]12` [TX63557], the IC50 is reported as 2.2 nM.
`C[C@@H]1C(=O)C(C#N)=C[C@]2(C)C3=CC(=O)[C@@H]4[C@@H]5CC(C)(C)CC[C@]5(C(=O)N(C)C)CC[C@@]4(C)[C@]3(C)CC[C@@H]12` [TX63878] was tested, and the IC50 was 1.4 nM.
`C[C@@H]1C(=O)C(C#N)=C[C@]2(C)C3=CC(=O)[C@@H]4[C@@H]5CC(C)(C)CC[C@]5(NS(=O)(=O)CC(F)(F)F)CC[C@@]4(C)[C@]3(C)CC[C@@H]12` [TX63818] showed an IC50 of 0.8 nM.
For `C[C@@H]1C(=O)C(C#N)=C[C@]2(C)C3=CC(=O)[C@@H]4[C@@H]5CC(C)(C)CC[C@]5(CCC(=O)O)CC[C@@]4(C)[C@]3(C)CC[C@@H]12` [TX63891], the IC50 was 1.3 nM.
`C[C@@H]1C(=O)C(C#N)=C[C@]2(C)C3=CC(=O)[C@@H]4[C@@H]5CC(C)(C)CC[C@]5(NC(N)=O)CC[C@@]4(C)[C@]3(C)CC[C@@H]12` [TX63862] showed an IC50 of 28 nM.
In the case of `COC(=O)[C@]12CCC(C)(C)C[C@H]1[C@H]1C(=O)C=C3[C@@]4(C)C=C(I)C(=O)[C@@H](C)[C@@H]4CC[C@@]3(C)[C@]1(C)CC2` [TX63833], the IC50 is reported as 88 nM.
`C[C@@H]1C(=O)C(C#N)=C[C@]2(C)C3=CC(=O)[C@@H]4[C@@H]5CC(C)(C)CC[C@@H]5CC[C@@]4(C)[C@]3(C)CC[C@@H]12` [TX63869] gave an IC50 of 3.8 nM.
Molecule `CCCCCCC(=O)N[C@]12CCC(C)(C)C[C@H]1[C@H]1C(=O)C=C3[C@@]4(C)C=C(C#N)C(=O)[C@@H](C)[C@@H]4CC[C@@]3(C)[C@]1(C)CC2` [TX63865] has an IC50 of 9.4 nM.
Work on `C[C@@H]1C(=O)C(C#N)=C[C@]2(C)C3=CC(=O)[C@@H]4[C@@H]5CC(C)(C)CC[C@]5(NC(=O)c5ccccc5)CC[C@@]4(C)[C@]3(C)CC[C@@H]12` [TX63798] yielded an IC50 of 1.5 nM.
Work on `COCc1nnc([C@]23CCC(C)(C)C[C@H]2[C@H]2C(=O)C=C4[C@@]5(C)C=C(C#N)C(=O)[C@@H](C)[C@@H]5CC[C@@]4(C)[C@]2(C)CC3)o1` [TX63790] yielded an IC50 of 1.1 nM.
For `C[C@@H]1C(=O)C(C#N)=C[C@]2(C)C3=CC(=O)[C@@]4(C)[C@@H]5CC(C)(C)CC[C@]56CC[C@]4(OC6=O)[C@]3(C)CC[C@@H]12` [TX63556], the IC50 was 69 nM.
For `CONC(=O)[C@]12CCC(C)(C)C[C@H]1[C@H]1C(=O)C[C@@H]3[C@@]4(C)C=C(C#N)C(=O)[C@@H](C)[C@@H]4CC[C@@]3(C)[C@]1(C)CC2` [TX63815], the IC50 was 9.6 nM.
`C[C@@H]1C(=O)C(C#N)=C[C@]2(C)C3=CC(=O)[C@@H]4[C@@H]5CC(C)(C)CC[C@]5(CCCO)CC[C@@]4(C)[C@]3(C)CC[C@@H]12` [TX63918] gave an IC50 of 0.5 nM.
In the case of `COCC(=O)NNC(=O)[C@]12CCC(C)(C)C[C@H]1[C@H]1C(=O)C=C3[C@@]4(C)C=C(C#N)C(=O)[C@@H](C)[C@@H]4CC[C@@]3(C)[C@]1(C)CC2` [TX63784], the IC50 is reported as 7.5 nM.
In the case of `Cc1noc([C@]23CCC(C)(C)C[C@H]2[C@H]2C(=O)C=C4[C@@]5(C)C=C(C#N)C(=O)[C@@H](C)[C@@H]5CC[C@@]4(C)[C@]2(C)CC3)n1` [TX63787], the IC50 is reported as 0.8 nM.
In the case of `COC(=O)[C@]12CCC(C)(C)C[C@H]1[C@H]1C(=O)C=C3[C@@]4(C)C=C(C(N)=O)C(=O)[C@@H](C)[C@@H]4CC[C@@]3(C)[C@]1(C)CC2` [TX63831], the IC50 is reported as 21 nM.
Molecule `COC(=O)N[C@]12CCC(C)(C)C[C@H]1[C@H]1C(=O)C=C3[C@@]4(C)C=C(C#N)C(=O)[C@@H](C)[C@@H]4CC[C@@]3(C)[C@]1(C)CC2` [TX63693] has an IC50 of 1.4 nM.
Work on `COC(=O)C1=C[C@]2(C)C3=CC(=O)[C@@H]4[C@@H]5CC(C)(C)CC[C@]5(C(=O)OC)CC[C@@]4(C)[C@]3(C)CC[C@H]2[C@H](C)C1=O` [TX63788] yielded an IC50 of 33.5 nM.
In the case of `C[C@@H]1C(=O)C(C#N)=C[C@]2(C)C3=CC(=O)[C@@H]4[C@@H]5CC(C)(C)CC[C@]5(C(=O)NC5COC5)CC[C@@]4(C)[C@]3(C)CC[C@@H]12` [TX63825], the IC50 is reported as 2 nM.
Work on `CC(=O)OC[C@]12CCC(C)(C)C[C@H]1[C@@]1(O)C(=O)C=C3[C@@]4(C)C=C(C#N)C(=O)[C@@H](C)[C@@H]4CC[C@@]3(C)[C@]1(C)CC2` [TX63909] yielded an IC50 of 1.4 nM.
For `CC(C)OC(=O)N[C@]12CCC(C)(C)C[C@H]1[C@H]1C(=O)C=C3[C@@]4(C)C=C(C#N)C(=O)[C@@H](C)[C@@H]4CC[C@@]3(C)[C@]1(C)CC2` [TX63819], the IC50 was 2.7 nM.
Work on `C[C@@H]1C(=O)C(C#N)=C[C@]2(C)C3=CC(=O)[C@@H]4[C@@H]5CC(C)(C)CC[C@]5(NC(=O)N(C)C)CC[C@@]4(C)[C@]3(C)CC[C@@H]12` [TX63875] yielded an IC50 of 1.3 nM.
With `CC(=O)NNC(=O)CC[C@]12CCC(C)(C)C[C@H]1[C@H]1C(=O)C=C3[C@@]4(C)C=C(C#N)C(=O)[C@@H](C)[C@@H]4CC[C@@]3(C)[C@]1(C)CC2` [TX63915] the IC50 was 4 nM.
Work on `C[C@@H]1C(=O)C(C#N)=C[C@]2(C)C3=CC(=O)[C@@H]4[C@@H]5CC(C)(C)CC[C@]5(CCC(=O)N5CCC(F)(F)C5)CC[C@@]4(C)[C@]3(C)CC[C@@H]12` [TX63890] yielded an IC50 of 0.8 nM.
In the case of `CCNC(=O)[C@]12CCC(C)(C)C[C@H]1[C@H]1C(=O)C=C3[C@@]4(C)C=C(C#N)C(=O)[C@@H](C)[C@@H]4CC[C@@]3(C)[C@]1(C)CC2` [TX63521], the IC50 is reported as 1.1 nM.
`CCCCCCOC(=O)[C@]12CCC(C)(C)C[C@H]1[C@H]1C(=O)C=C3[C@@]4(C)C=C(C#N)C(=O)[C@@H](C)[C@@H]4CC[C@@]3(C)[C@]1(C)CC2` [TX63821] showed an IC50 of 53 nM.
Work on `C[C@@H]1C(=O)C(C#N)=C[C@]2(C)C3=CC(=O)[C@@H]4[C@@H]5CC(C)(C)CC[C@]5(CCC(=O)NC5COC5)CC[C@@]4(C)[C@]3(C)CC[C@@H]12` [TX63914] yielded an IC50 of 0.4 nM.
`C[C@@H]1C(=O)C(C#N)=C[C@]2(C)C3=CC(=O)[C@@H]4[C@@H]5CC(C)(C)CC[C@]5(CCC(=O)N5CCOCC5)CC[C@@]4(C)[C@]3(C)CC[C@@H]12` [TX63888] showed an IC50 of 0.3 nM.
With `C[C@@H]1C(=O)C(C#N)=C[C@]2(C)C3=CC(=O)[C@@H]4[C@@H]5CC(C)(C)CC[C@]5(NC(=O)CC(F)(F)F)CC[C@@]4(C)[C@]3(C)CC[C@@H]12` [TX63799] the IC50 was 1.8 nM.
`C[C@@H]1C(=O)C(C#N)=C[C@]2(C)C3=CC(=O)[C@@H]4[C@@H]5CC(C)(C)CC[C@]5(OC(N)=O)CC[C@@]4(C)[C@]3(C)CC[C@@H]12` [TX63929] gave an IC50 of 0.5 nM.
For `C[C@@H]1C(=O)C(C#N)=C[C@]2(C)C3=CC(=O)[C@]4(O)[C@@H]5CC(C)(C)CC[C@]5(CO)CC[C@@]4(C)[C@]3(C)CC[C@@H]12` [TX63908], the IC50 was 0.6 nM.
Work on `CC(=O)O[C@]12CCC(C)(C)C[C@H]1[C@H]1C(=O)C=C3[C@@]4(C)C=C(C#N)C(=O)[C@@H](C)[C@@H]4CC[C@@]3(C)[C@]1(C)CC2` [TX63928] yielded an IC50 of 0.6 nM.
`C[C@@H]1C(=O)C(C#N)=C[C@]2(C)C3=CC(=O)[C@@H]4[C@@H]5CC(C)(C)CC[C@]5(F)CC[C@@]4(C)[C@]3(C)CC[C@@H]12` [TX63936] was tested, and the IC50 was 1.1 nM.
`Cc1nnc(CC[C@]23CCC(C)(C)C[C@H]2[C@H]2C(=O)C=C4[C@@]5(C)C=C(C#N)C(=O)[C@@H](C)[C@@H]5CC[C@@]4(C)[C@]2(C)CC3)o1` [TX63916] was tested, and the IC50 was 0.4 nM.
`CCOC(=O)[C@]12CCC(C)(C)C[C@H]1[C@H]1C(=O)C=C3[C@@]4(C)C=C(C#N)C(=O)[C@@H](C)[C@@H]4CC[C@@]3(C)[C@]1(C)CC2` [TX63820] was tested, and the IC50 was 1.5 nM.
`C[C@@H]1C(=O)C(C#N)=C[C@]2(C)C3=CC(=O)[C@@H]4[C@@H]5CC(C)(C)CC[C@]5(C(=O)N5CCOCC5)CC[C@@]4(C)[C@]3(C)CC[C@@H]12` [TX63881] showed an IC50 of 0.9 nM.
